Experiments:
[1] = system: Colletotrichum gloeosporioides (Cg); test: Antifungal activity against Colletotrichum gloeosporioides (Cg) in wounded, infected avocados; assay type: in vivo; conditions: Example 9; avocados; vapor of 3 mL, 72 hour exposure
Method: Example 7. The antifungal activity of AITC and DADS vapor against Colletotrichum gloeosporioides (Cg) was tested in avocados. All test pieces were wounded by removing the stem and infected by dispensing 1000 Cg spores suspended in 10 μL of water into the wound. The test groups consisted of avocados that were: untreated and uninfected; untreated and infected; treated by dipping in a solution of 0.1 g/L of prochloraz; exposed to the vapor of 3 mL of AITC disposed in a Petri dish; and exposed to the vapor of 3 mL of DADS disposed in a Petri dish. FIG. 9 quantifies the infection results. AITC vapor reduced the incidence of Cg mold by 97% compared to the untreated test group and 70% compared to the prochloraz treated test group. DADS vapor reduced the incidence of Cg mold by 60% compared to the untreated test group.
Example 8. The antifungal activity of a range of DADS vapor exposure times was tested against Cg in avocados. All test pieces were wounded by removing the stem and infected by dispensing 1000 Cg spores suspended in 10 μL of water into the wound. The test groups consisted of avocados that were: infected and untreated; and exposed to the vapor of 3 mL of DADS in a Petri dish for 24 hours, 48 hours, and 72 hours. FIG. 10 quantifies the infection results. Test group exposed to DADS vapor at all exposure times reduced the incidence of Cg mold compared to the untreated test group. A 24 hour DADS exposure reduced the incidence of Cg mold by 8%. A 48 hour DADS exposure reduced the incidence of Cg mold by 25%. A 72 hour DADS exposure reduced the incidence of Cg mold by 57%.
(§1) Example 9. The antifungal activity of a range of AITC and carvacrol vapor exposure times was tested against Cg in avocados. To measure the effect of the various treatments on ripening, durometer shore was taken after 7 days of incubation at ambient temperature and high humidity. All samples were wounded by removing the stem and infected by dispensing 1000 Cg spores suspended in 10 μL of water in the wound. The test groups consisted of avocados that were: infected and left untreated on the benchtop; infected and left untreated under a fume hood; exposed to the vapor of 3 mL of AITC in a Petri dish for 24 hours, 48 hours, and 72 hours; and exposed to the vapor of 3 mL of carvacrol in a Petri dish for 72 hours. FIG. 11 quantifies the infection results. […] All exposure times to AITC vapor reduced the incidence of Cg mold compared to the untreated samples. A 24 hour AITC exposure reduced the incidence of Cg mold by 90%. A 48 hour AITC exposure reduced the incidence of Cg mold by 97%. A 72 hour AITC exposure reduced the incidence of Cg mold by 83%.
(§2) Example 10. The antifungal activity of a range of AITC vapor exposure times were tested against Cg in avocados. To measure the effect of the various treatments on ripening, durometer shore was taken after 6 days of incubation at ambient temperature and high humidity. All samples were wounded by removing the stem and infected by dispensing 1000 Cg spores suspended in 10 μL of water in each wound. The test groups consisted of avocados that were: infected and left untreated on the benchtop; infected and left untreated in a fume hood; exposed to the vapor of 3 mL of AITC in a Petri dish for 24 hours, 48 hours, and 72 hours. FIG. 13 quantifies the infection results. […] All exposure times to AITC vapor reduced the incidence of Cg mold compared to the untreated samples.
Example 21. The antifungal activity of avocados exposed to AITC vapor and prochloraz was tested against Cg in avocados. To measure the effect of the various treatments on ripening, durometer shore was taken after 5 days of incubation at ambient temperature (about 20° C. to about 25° C.) and high humidity (about 88% relative humidity to about 93% relative humidity). All samples were wounded by removing the stem and infected by dispensing 1000 Cg spores suspended in 10 μL of water in the wound. […]

[2] = system: Penicillium digitatum (Pd); test: Antifungal activity of vapor against Penicillium digitatum (Pd) in wounded, infected mandarins; assay type: in vivo; conditions: after 6 days
avocados = test: Durometer shore (firmness, ripening) of treated avocados; assay type: in vivo, avocado; conditions: Example 21; Cg-infected avocados; AITC 125 μL 30 minutes; prochloraz 0.1 g/L dip; after 5 days
Method: as §1, §2
Example 21. The antifungal activity of avocados exposed to AITC vapor and prochloraz was tested against Cg in avocados. To measure the effect of the various treatments on ripening, durometer shore was taken after 5 days of incubation at ambient temperature (about 20° C. to about 25° C.) and high humidity (about 88% relative humidity to about 93% relative humidity). All samples were wounded by removing the stem and infected by dispensing 1000 Cg spores suspended in 10 μL of water in the wound. Exposure to vapor was done by placing the avocados in an airtight container, dispensing AITC onto Whatman filter paper discs, suspending the discs in front of a battery-powered fan, closing the container and incubating the avocados for 30 minutes. After vapor exposure, the avocados were left at ambient temperature, high humidity, and assessed for Cg mold on day 5. Treatment groups consisted of avocados that were: exposed for 30 minutes to the vapor of 125 μL of AITC disposed on a filter paper disc; dipped in a solution of 0.1 g/L of prochloraz and placed to dry on a rack in front of a fan for 30 min; infected and left untreated; and uninfected and untreated. […] To prepare the 0.1 g/L of prochloraz, 10 mg of prochloraz was mixed with 10 mL of ethanol and 90 mL of water. […] A 24 hour AITC exposure reduced the incidence of Cg mold by 90%. […] The mean shore value for the untreated avocados was 28.8 (standard deviation (SD)=10.8). The mean shore value for the infected avocados was 47.3 (SD=11.8). The mean shore value of the positive control, prochloraz treated avocados was 44.3 (SD=14.7). The mean shore value of the AITC treated avocados was 61.1 (SD=10.5).
Durometer Shore Measurement: A Fruit Hardness Tester— HPE III Fff w/Sphere Ø 5.0 mm Test Anvil is used for the measurements. The Operating Procedure is as follows: • 1) At room temperature and 1 atm pressure, switch on the measuring device and press the hull or sleeve against the specimen so that the contact surface of the pressure plate rests on the fruit. […]

Compound: Cc1ccc(C(C)C)cc1O [carvacrol]
- reduction of the incidence of Cg mold [1]: did not reduce the incidence of Cg mold

Compound: C=CCc1ccc(O)c(OC)c1 [eugenol]
- performance against Pd versus the untreated samples ([2]; Example 19, mandarins, 62.5 μL AITC and/or 125 μL of all other compounds, 30 minutes): performed better than the untreated samples

Compound: C=CCOC(Cn1ccnc1)c1ccc(Cl)cc1Cl (stereo not shown) [imazalil, reference compound]
- infected mandarins ([2]; Example 6, treated with 1 g/L, fruit of poor quality with latent infection): 83.3%

Compound: CCCN(CCOc1c(Cl)cc(Cl)cc1Cl)C(=O)n1ccnc1 [prochloraz, reference compound]
- mean shore value (avocados): 44.3 (SD=14.7)
